Measured values reported in patent publication US7728142B2, “3-methanesulfonylquinolines as GABAB enhancers” (Hoffmann-La Roche Inc., priority 2005, dated 2010).
Like-named read-outs stand apart in the source and are kept apart here.

Legend:
[1] = PO, cited from earlier work
[2] = system: panic attacks and symptoms of anxiety; conditions: panic disorder patients; Hamilton, Zung anxiety scales, Katz-R nervousness subscale; cited from earlier work
symptoms of PTSD = conditions: small group of veterans with chronic, combat-related PTSD; cited from earlier work
prepulse inhibition = conditions: rat; cited from earlier work
[3] = in vivo; cited from earlier work
GABABR1R2 = GABABR1R2 (Homo sapiens, UniProt O75899+Q9UBS5); conditions: absence of GABA; cited from earlier work
[4] = system: cocaine self-administration; conditions: rats; cited from earlier work
[5] = system: Gastro-Esophageal Reflux Disease; conditions: preclinical; cited from earlier work
human GABABR1aR2a [6] = target: T1, human GABABR1aR2a (Homo sapiens, UniProt O75899+Q9UBS5); test: GABA shift assay (Ca2+ mobilization, GABA curves with and without 10 μM enhancer); type: cell-based; conditions: CHO-GABABR1aR2a-Gα16 cell
T1 construct: expressed in transfected cells
Method: (§1) Intracellular Ca^2+ Mobilization Assay
(§2) Chinese Hamster Ovary (CHO) cells stably expressing human GABABR1aR2a and Gα16 were seeded at 5×10^4 cells/well in the poly-D-lysine treated, 96-well, black/clear-bottomed plates (BD Biosciences, Palo Alto, Calif.). 24 h later, the cells were loaded for 90 min at 37° C. with 4 μM Flou-4 acetoxymethyl ester (Catalog No. F-14202, Molecular Probes, Eugene, Oreg.) in loading buffer (1×HBSS, 20 mM HEPES, 2.5 mM Probenecid). Hanks' Balanced Salt Solution (HBSS) (10×) (catalog No. 14065-049) and HEPES (1M) (catalog No. 15630-056) were purchased from Invitrogen, Carlsbad, Calif. Probenecid (250 mM) (catalog No. P8761) was from Sigma, Buchs, Switzerland. The cells were washed five times with loading buffer to remove excess dye and intracellular calcium mobilization, [Ca^2+] was measured using a Fluorometric Imaging Plate Reader (FLIPR, Molecular Devices, Menlo Park, Calif.) as described previously (Porter et al., Br. J. Pharmacol., 128, 13-20, 1999). The enhancers were applied 15 min before the application of the GABA. For GABA shift assay, concentration-response curves of GABA (0.0003-30 μM) were determined in the absence and presence of 10 μM enhancer. The GABA-shift is defined as Log [EC50 (GABA+10 μM enhancer)/EC50 (GABA alone)]. The % maximum enhancing effect (% Emax) and potency (EC50 value) of each enhancer was determined from concentration-response curve of the enhancer (0.001-30 μM) in the presence of 10 nM GABA (EC10). Responses were measured as peak increase in fluorescence minus basal, normalized to the maximal stimulatory effect induced by 10 μM GABA alone (considered 100%) and 10 nM GABA alone (considered 0%). The data were fitted with the equation Y=100+(Max−100)/(1+(EC50/[drug])^n) where Max is the maximum effect, EC50 the concentration eliciting a half-maximum effect and n the Hill slope.

human GABABR1aR2a [7] = target: T1, human GABABR1aR2a; test: Intracellular Ca2+ mobilization assay (FLIPR), enhancer concentration-response in presence of 10 nM GABA; type: cell-based; conditions: CHO-GABABR1aR2a-Gα16 cell; for Emax: enhancer 0.001-30 μM in presence of 10 nM GABA (EC10), read-out: Emax (%) at 10 nM GABA alone = 0% 10 μM GABA alone = 100%; for EC50: in presence of 10 nM GABA (EC10)
Method: as §1, §2

anxiety [8] = conditions: cited from earlier work
anxiety [9] = conditions: elevated plus maze (rat), elevated zero maze (mice and rats), stress-induced hyperthermia (mice); cited from earlier work
cognition performance = conditions: passive avoidance, mice and rats; cited from earlier work

T1 sequence (Q9UBS5 15-961 limits assumed): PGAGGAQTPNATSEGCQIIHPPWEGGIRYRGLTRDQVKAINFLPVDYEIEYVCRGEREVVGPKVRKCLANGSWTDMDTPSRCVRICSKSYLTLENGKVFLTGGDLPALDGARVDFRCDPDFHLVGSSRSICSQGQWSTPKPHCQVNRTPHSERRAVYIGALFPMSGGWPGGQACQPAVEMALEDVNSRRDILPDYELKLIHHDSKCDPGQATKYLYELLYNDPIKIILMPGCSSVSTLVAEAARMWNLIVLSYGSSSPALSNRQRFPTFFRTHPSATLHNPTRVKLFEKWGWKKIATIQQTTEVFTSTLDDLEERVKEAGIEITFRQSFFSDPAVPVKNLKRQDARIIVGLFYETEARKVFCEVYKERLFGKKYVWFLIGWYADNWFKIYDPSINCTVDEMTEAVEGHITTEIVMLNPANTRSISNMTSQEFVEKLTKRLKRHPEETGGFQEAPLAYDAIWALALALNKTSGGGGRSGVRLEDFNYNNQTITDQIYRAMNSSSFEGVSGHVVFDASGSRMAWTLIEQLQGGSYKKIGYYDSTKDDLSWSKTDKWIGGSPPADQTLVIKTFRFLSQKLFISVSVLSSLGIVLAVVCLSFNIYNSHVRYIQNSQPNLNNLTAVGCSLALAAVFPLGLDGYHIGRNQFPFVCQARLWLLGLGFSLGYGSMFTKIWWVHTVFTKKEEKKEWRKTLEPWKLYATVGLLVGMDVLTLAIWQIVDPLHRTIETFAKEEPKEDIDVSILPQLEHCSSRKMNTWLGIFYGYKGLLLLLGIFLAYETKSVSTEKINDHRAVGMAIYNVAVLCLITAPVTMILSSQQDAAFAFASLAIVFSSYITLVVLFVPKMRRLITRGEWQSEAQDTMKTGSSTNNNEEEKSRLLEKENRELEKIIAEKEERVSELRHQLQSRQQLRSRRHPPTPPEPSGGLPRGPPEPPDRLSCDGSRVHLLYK
T1 sequence (O75899 42-941): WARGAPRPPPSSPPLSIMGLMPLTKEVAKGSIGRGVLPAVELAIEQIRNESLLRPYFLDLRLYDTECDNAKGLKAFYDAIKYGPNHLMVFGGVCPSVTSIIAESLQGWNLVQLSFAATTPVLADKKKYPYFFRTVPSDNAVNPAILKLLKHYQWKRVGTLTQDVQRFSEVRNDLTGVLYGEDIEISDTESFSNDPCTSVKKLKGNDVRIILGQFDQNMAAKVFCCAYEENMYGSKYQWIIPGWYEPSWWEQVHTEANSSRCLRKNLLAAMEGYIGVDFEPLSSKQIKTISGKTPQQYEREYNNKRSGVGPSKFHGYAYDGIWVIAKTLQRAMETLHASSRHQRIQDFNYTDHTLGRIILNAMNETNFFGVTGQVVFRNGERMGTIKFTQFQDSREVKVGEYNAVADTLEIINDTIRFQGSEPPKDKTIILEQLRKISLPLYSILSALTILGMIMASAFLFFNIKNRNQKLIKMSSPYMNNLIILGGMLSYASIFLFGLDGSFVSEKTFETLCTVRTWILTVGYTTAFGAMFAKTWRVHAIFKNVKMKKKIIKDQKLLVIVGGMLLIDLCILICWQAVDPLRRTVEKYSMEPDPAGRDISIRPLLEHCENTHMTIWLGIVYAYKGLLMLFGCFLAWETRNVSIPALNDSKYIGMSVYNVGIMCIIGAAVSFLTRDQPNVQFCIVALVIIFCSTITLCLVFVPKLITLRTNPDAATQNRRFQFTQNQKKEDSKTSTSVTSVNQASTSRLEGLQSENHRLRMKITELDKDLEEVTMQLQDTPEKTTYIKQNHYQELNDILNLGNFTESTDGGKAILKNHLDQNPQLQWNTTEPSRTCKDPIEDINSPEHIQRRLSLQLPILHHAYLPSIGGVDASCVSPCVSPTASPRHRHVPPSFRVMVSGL
Sequence of GABABR1R2 (Q9UBS5 20-961): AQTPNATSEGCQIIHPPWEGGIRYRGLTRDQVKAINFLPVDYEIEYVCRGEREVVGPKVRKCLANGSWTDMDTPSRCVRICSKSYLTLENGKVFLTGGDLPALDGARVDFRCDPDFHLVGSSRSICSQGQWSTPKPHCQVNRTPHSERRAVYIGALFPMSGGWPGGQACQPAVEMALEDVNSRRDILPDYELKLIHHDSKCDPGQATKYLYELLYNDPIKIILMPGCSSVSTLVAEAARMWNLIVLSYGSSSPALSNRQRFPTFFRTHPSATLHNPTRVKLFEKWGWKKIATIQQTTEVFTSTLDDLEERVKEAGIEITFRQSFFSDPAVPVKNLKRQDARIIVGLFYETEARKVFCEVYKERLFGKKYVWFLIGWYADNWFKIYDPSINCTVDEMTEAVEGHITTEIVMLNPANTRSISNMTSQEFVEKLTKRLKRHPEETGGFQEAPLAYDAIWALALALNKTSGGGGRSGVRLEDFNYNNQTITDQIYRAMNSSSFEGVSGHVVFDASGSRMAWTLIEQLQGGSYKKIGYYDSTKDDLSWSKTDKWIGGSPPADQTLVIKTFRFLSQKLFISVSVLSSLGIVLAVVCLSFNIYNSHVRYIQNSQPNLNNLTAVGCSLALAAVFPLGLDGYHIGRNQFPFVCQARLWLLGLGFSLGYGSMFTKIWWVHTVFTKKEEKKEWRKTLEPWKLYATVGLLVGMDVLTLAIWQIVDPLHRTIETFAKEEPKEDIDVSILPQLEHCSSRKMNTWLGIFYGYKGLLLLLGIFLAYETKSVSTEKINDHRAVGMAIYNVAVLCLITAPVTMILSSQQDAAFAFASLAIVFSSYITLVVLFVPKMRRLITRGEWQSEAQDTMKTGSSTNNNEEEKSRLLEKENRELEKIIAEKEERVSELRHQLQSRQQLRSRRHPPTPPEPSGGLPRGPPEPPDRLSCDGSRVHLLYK
Sequence of GABABR1R2 (O75899 42-941): as the sequence (O75899 42-941) above

SMILES | GABA shift Log [EC50(GABA + 10 μM cp)/EC50(GABA alone)] (human GABABR1aR2a [6]) | Emax (human GABABR1aR2a [7]) [%] | EC50 (human GABABR1aR2a [7]) [µM] | further results
NCC(CC(=O)O)c1ccc(Cl)cc1 (stereo not drawn) [Baclofen, β-chlorophenyl GABA] |  |  |  | effect on spontaneous locomotor activity, rotarod, body temperature and traction test ([1]; 2.5-15 mg/kg): showed these side effects; reduction of number of panic attacks and symptoms of anxiety [2]: significantly effective; treatment of PTSD (symptoms of PTSD): effective and well-tolerated treatment; reversal of reduction in prepulse inhibition induced by dizocilpine (prepulse inhibition): able to reverse the reduction in prepulse inhibition; blood-brain-barrier penetration [3]: poor blood-brain-barrier penetration
CC(C)(CO)Cc1cc(C(C)(C)C)c(O)c(C(C)(C)C)c1 [CGP7930, 2,6-di-tert-butyl-4-(3-hydroxy-2,2-dimethyl-propyl)-phenol] |  |  |  | effect on their own at GABAB receptors (GABABR1R2): no effect on their own; decrease of cocaine self-administration [4]: effective at decreasing cocaine self-administration; efficacy in GERD [5]: found to be effective
CC(C)(C=O)Cc1cc(C(C)(C)C)c(O)c(C(C)(C)C)c1 [CGP13501] |  |  |  | effect on their own at GABAB receptors (GABABR1R2): no effect on their own
Cc1nc2ccc(OC(F)(F)F)cc2c(-c2ccccc2)c1S(C)(=O)=O [Example 1, 3-Methanesulfonyl-2-methyl-4-phenyl-6-trifluoromethoxy-quinoline] | −0.7 | 56 | 0.85 | 
Cc1nc2ccc(I)cc2c(N2CCOCC2)c1S(C)(=O)=O [Example 5, 6-Iodo-3-methanesulfonyl-2-methyl-4-morpholin-4-yl-quinoline] | −0.4 | 30 | 2.1 | 
Cc1nc2ccc(I)cc2c(N2CCCCC2)c1S(C)(=O)=O [Example 9, 6-Iodo-3-methanesulfonyl-2-methyl-4-piperidin-1-yl-quinoline] | −1.2 | 48 | 0.6 | 
Cc1nc2ccc(I)cc2c(N2CCC[C@@H](O)C2)c1S(C)(=O)=O [Example 11, (R)-1-(6-Iodo-3-methanesulfonyl-2-methyl-quinolin-4-yl)-piperidin-3-ol] | −0.8 | 26 | 0.8 | 
Cc1nc2ccc(Br)cc2c(-c2ccc(F)cc2)c1S(C)(=O)=O [Example 14, 6-Bromo-4-(4-fluoro-phenyl)-3-methanesulfonyl-2-methyl-quinoline] | −0.45 | 37 | 2.1 | 
CSc1nc(NC2CCCC2)c([N+](=O)[O-])c(NC2CCCC2)n1 [GS39783, N,N_-dicyclopentyl-2-methylsulfanyl-5-nitro-pyrimidine-4,6-diamine] |  |  |  | effect on spontaneous locomotor activity, rotarod, body temperature and traction test ([1]; 0.1-200 mg/kg): had no effect; tolerance after chronic treatment (anxiety [8]; 21 days, 10 mg/kg, P.O., once daily): No tolerance; anxiolytic effects in light-dark box and elevated zero maze (anxiety [8]; acute and chronic treatment): anxiolytic effects; decrease of cocaine self-administration [4]: effective at decreasing cocaine self-administration; anxiolytic-like effects (anxiety [9]): exhibited anxiolytic-like effects; effect on cognition performance (cognition performance): did not have any effect
